According to patent publication US20100216779A1 (GLAXOSMITHKLINE LLC, priority 2007, published 2010):

System: LISN cell (mouse 3T3 fibroblasts transduced with human IGF-1R) tumors
Assay: In vivo efficacy, mice bearing LISN cell tumors
Conditions: LISN
Experimental: E. In Vivo Efficacy—Mouse Models
The efficacy of the compounds of Examples 57 and 58 were assessed together in an in vivo efficacy experiment performed on mice bearing LISN cell (mouse 3T3 fibroblasts transduced with human IGF-1R) tumors. Fifty six female nude mice bearing subcutaneous LISN cell tumors were measured for tumor size and body weight and block randomized into seven groups of eight mice with an equal average tumor volume of approximately 200 mm3. Mice were dosed with either vehicle (20% SBE pH3.5), Example 57 or Example 58. The dosing schedules for each compound were based on previous experiments with the compounds and doses chosen to give the highest tumor growth inhibition and a dose response. Example 58 was dosed at 30, 100 and 300 mg/kg QD for 21 days while Example 57 was dosed at 30 mg/kg QD for 21 days, 15 mg/kg BID for 21 days and 30 mg/kg QDx3 days/week for 3 weeks.
The tumors on mice being treated with vehicle grew with the expected exponential growth throughout the 21 day study. […] The lower dose of 30 mg/kg of Example 58 achieved 28% tumor growth inhibition.
The efficacy of the compounds of Examples 237 and 219 were assessed together in an in vivo efficacy experiment performed on mice bearing LISN cell (mouse 3T3 fibroblasts transduced with human IGF-1R) tumors. Sixty four female nude mice bearing subcutaneous LISN cell tumors were measured for tumor size and body weight and block randomized into eight groups of eight mice with an equal average tumor volume of approximately 362 mm^3. Mice were dosed with either vehicle (20% SBE pH3.5), Example 237 or Example 219. The dosing schedules for each compound were based on previous experiments with the compounds and doses chosen to give the highest tumor growth inhibition and a dose response. Example 237 was administered at 30 and 60 mg/kg QD for 21 days and 30 mg/kg BID for 21 days while Example 219 was administered at 50 and 100 mg/kg QD for 21 days, 25 and 50 mg/kg BID for 21 days.
The tumors on mice being treated with vehicle grew with the expected exponential growth throughout the 21 day study. […] The lower dose of 30 mg/kg QD of Example 237 achieved 15% tumor growth inhibition at day 21 (note: 2 animals were euthanized prior to the last measurement). […] This recovered to 3% by the end of dosing and fully recovered after dosing was concluded. […] This recovered fully within 4 days after the completion of dosing.

COc1cc(N2CCC(N3CCN(CCF)CC3)CC2)ccc1Nc1nccc(-c2c(-c3cccc(C(=O)Nc4c(F)cccc4F)c3)nc3ccccn23)n1 [Example 57, N-(2,6-difluorophenyl)-3-[3-(2-{[4-{4-[4-(2-fluoroethyl)-1-piperazinyl]-1-piperidinyl}-2-(methyloxy)phenyl]amino}-4-pyrimidinyl)imidazo[1,2-a]pyridin-2-yl]benzamide]
tumor growth inhibition (15 mg/kg BID for 21 days): 50%
body weight loss (30 mg/kg QD and 15 mg/kg BID treated groups): no body weight loss
tumor growth inhibition (30 mg/kg QD for 21 days): 34%
tumor growth inhibition (30 mg/kg QDx3 days/week for 3 weeks): 69%
body weight loss (30 mg/kg QDx3 days/week for 3 weeks, over the three consecutive days of dosing, recovered in between doses): significant body weight loss
